Test results as given in US20250333441A1, “POLYPEPTIDE INHIBITORS AND USES THEREOF” (Neuracle Science Co., Ltd., priority 2021, published 2025).
Where a SMILES comes first, the peptide text is derived from it. Where no end group is shown, it is not given here. [ ]: non-standard residue; d: D form.

Experiments:
[1] = test system: mouse hippocampal neurons treated with toxic amyloid beta oligomer; assay: Amyloid beta-induced synapse loss in primary hippocampal neurons; assay type: cell-based; settings: 6.6 nM; co-treated with toxic amyloid beta oligomer; 21 DIV
Experimental: Alzheimer's disease (AD) is tightly associated with the dysmetabolism of amyloid-R (A3). To begin assessing whether the polypeptides provided herein (i.e., comprising the FAM19A5 binding domain of LRRC4 protein family members) could have any therapeutic effects on AD, the effect of various FB-21 peptide fragments described herein on the deformation of synapse induced by toxic A3 oligomer and following structural recovery was assessed. Specifically, the following FB-21 peptide fragments were tested: FB-21, FB-JM-31 and FB-BBB-39 (see Example 10).
Aβ42 (#20276) peptide was purchased from AnaSpec (Fremont, USA). […]
Hippocampal neurons were treated with 6.6 nM FB-21, 6.6 nM of FB-13-JM and 6.6 nM of FB-13-BBBX2 at 14, 17 and 20 DIV to determine the level of synaptogenesis at 21 DIV by immunostaining SYP, a presynapse marker protein and PSD95, a postsynapse marker protein. To quantify fluorescence intensity for SYN and PSD95 and number of colocalized voxels between SYN and PSD95 signals, z-stack confocal images of 3 m in depth were converted to 3D images using IMARIS software (IMARIS9.0, Bitplane AG, Zurich, Switzerland). The “Surface tool” of the IMARIS software was used to exclude all the signals detected in neuronal cell bodies, and number of colocalized voxels between SYN and PSD95 signals in neurites were calculated using the “Coloc tool”. […]

[2] = target: complex of human LRRC4B protein (hFc-fused) and recombinant FAM19A5 protein (Homo sapiens, UniProt Q7Z5A7); assay: Competitive inhibition assay (IC50), plate coated with LRRC4B(453-576, TT/TT)-hFc; assay type: binding; settings: hFc-fused hLRRC4B; from IC50 of Table 14
Experimental: The in silico analysis provided in Example 9 highlighted that certain T12 and L13 double mutants might be important in improving the binding affinity of the polypeptides of the present disclosure to the FAM19A5 protein. Therefore, the ability of both the wild-type FB-21 peptide (which is the same as the FB-20 peptide described herein except that the FB-21 peptide additionally contains an alanine at the C-terminus) and several FB-21 mutants were tested for their inhibitor effect on hFc-fused hLRRC4B and FAM19A5 complex formation. Briefly, plate was coated with 100 nM of LRRC4B(453-576, TT/TT)-hFc and then 1 ng/mL of rFAM19A5 was incubated at 37° C. in the presence of increasing concentrations of the different FB-21 peptide fragments (0.03, 0.1, 0.3, 1, 3, 10, 30, 100, 300 and 1000 nM). The LRRC4B-bound FAM19A5 levels were measured using HRP-conjugated 1-65 antibody.

[3] = target: complex of His-TEV LRRC4B and recombinant FAM19A5 protein (Homo sapiens, UniProt Q7Z5A7); assay: Competitive inhibition assay (IC50), plate coated with His-TEV LRRC4B; assay type: binding; settings: FIG. 22C; d-form peptides; methods as for Table 15
Experimental: To further assess the inhibitory effect of the FB-21 mutants, the ability of additional FB-21 mutants described in Example 9 were tested for their ability to inhibit the interaction between FAM19A5 protein and LRRC4B protein. Briefly, plates were coated with 100 nM of His-TEV LRRC4B and then 1 ng/mL of rFAM19A5 was incubated at 37° C. in the presence of increasing concentrations of the FB-21 peptide fragments (0.3, 1, 3, 10, 30, 100, 300, 1000, 3000 and 10000 nM). The LRRC4B-bound FAM19A5 levels were measured using HRP-conjugated 1-65 SS01 antibody. As shown in FIG. 22B (see Table 15 for IC50), most (if not all) of the FB-21 mutants had improved ability in inhibiting the interaction between LRRC4B and recombinant FAM19A5 protein.
Next, to assess whether other properties of the polypeptides described herein can be improved (e.g., solubility, prevention of degradation from protease and peptidase, and in vivo administration), the following additional FB-21 peptide mutants were constructed and tested for their ability to inhibit the interaction between FAM19A5 protein and LRRC4B: (1) d-form FB-21 peptide (“dFB-21”), (2) d-form FB-21 peptide with juxta-membrane (JM) sequence (“dFB-JM-31”), (3) d-form FB-21 peptide with BBB penetrating sequence at each end of the sequence (“dFB-BBB-39”), and (4) d-form FB-21 mutant peptide with DY replacement and additional JM sequence (“dFB-DY-JM31”). […]

Chain of complex of His-TEV LRRC4B and recombinant FAM19A5 protein (Q7Z5A7 44-132, one chain of several): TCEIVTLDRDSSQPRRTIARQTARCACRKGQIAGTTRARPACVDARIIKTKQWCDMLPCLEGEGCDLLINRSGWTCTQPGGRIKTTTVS
Chain of complex of human LRRC4B protein (hFc-fused) and recombinant FAM19A5 protein (Q7Z5A7 44-132, one chain of several): as above

Compound: nYTYFTTVTVETLETQPGEEALDEVMKTTKa ([dN]YTYFTTVTVETLETQPGEEALDEVMKTTK[dA]; also: terminal modifications) [dFB-JM-31]
- colocalized voxels for PSD95 and synaptophysin [1]: significant increase

Compound: CC(C)[C@H](NC(=O)[C@@H](NC(=O)[C@@H](NC(=O)[C@@H](NC(=O)[C@@H](NC(=O)[C@H](Cc1ccccc1)NC(=O)[C@H](Cc1ccc(O)cc1)NC(=O)[C@@H](NC(=O)[C@H](Cc1ccc(O)cc1)NC(=O)CN)[C@@H](C)O)[C@@H](C)O)[C@@H](C)O)C(C)C)[C@@H](C)O)C(=O)N[C@@H](CCC(=O)O)C(=O)N[C@@H](Cc1c[nH]c2ccccc12)C(=O)N[C@@H](Cc1ccc(O)cc1)C(=O)N[C@@H](CCC(=O)O)C(=O)N[C@H](C(=O)N[C@@H](CCC(N)=O)C(=O)N1CCC[C@H]1C(=O)NCC(=O)N[C@@H](CCC(=O)O)C(=O)N[C@@H](CCC(=O)O)C(=O)N[C@@H](C)C(=O)O)[C@@H](C)O [FB-21 (W12Y13)] (H-GYTYFTTVTVEWYETQPGEEA-OH; N-terminus and C-terminus assumed)
- increase in ability to dissociate the LRRC4B-FAM19A5 complex compared with wild-type FB-21 [2]: 2.9 fold

Compound: nYTYFTTVTVEDYETQPGEEALDEVMKTTKa ([dN]YTYFTTVTVEDYETQPGEEALDEVMKTTK[dA]; also: terminal modifications) [dFB-DY-JM31]
- more effective in inhibiting complex formation compared to the wild-type FB-21 [3]: 4 fold
